From patent US20100173968A1, “SUB-TYPE SELECTIVE AZABICYCLOALKANE DERIVATIVES” (TARGACEPT, INC., priority 2007, published 2010)
Structures can show the parent of a compound that is named as a salt. Where two headings read alike, the source gives them in different places.

How the values were obtained:
α4β2 nAChR Subtype = α4β2 nAChR Subtype (Rattus norvegicus, UniProt P09483+P12390); test: Radioligand binding at α4β2 nAChR subtype, inhibition of [3H]nicotine binding, rat cerebral cortex membranes; settings: [3H]nicotine 5 nM
Procedure: The [^3H]nicotine (Specific Activity=81.5 Ci/mmol) was obtained from NEN Research Products. The binding of [^3H]nicotine was measured using a 3 h incubation at 4° C. […] Each filter was washed with ice-cold buffer (3×1 mL).
Each concentration was replicated in triplicate.

Human α4β2 = Human α4β2 (Homo sapiens, UniProt P17787+P43681); test: Binding at human α4β2 (Ki); method not described
α7 nAChR Subtype = α7 nAChR Subtype (Rattus norvegicus, UniProt Q05941); test: Radioligand binding at α7 nAChR subtype, inhibition of [3H]MLA binding, rat hippocampus membranes (HTS at 5 μM, then Ki); settings: for inhibition at 5 µM: read-out: α7 HTS outcome (α7 Ki)
[1] = read-out: α7 Ki, [3H]MLA 5 nM, rat hippocampus

Chain of Human α4β2 (P43681 29-627 limits assumed): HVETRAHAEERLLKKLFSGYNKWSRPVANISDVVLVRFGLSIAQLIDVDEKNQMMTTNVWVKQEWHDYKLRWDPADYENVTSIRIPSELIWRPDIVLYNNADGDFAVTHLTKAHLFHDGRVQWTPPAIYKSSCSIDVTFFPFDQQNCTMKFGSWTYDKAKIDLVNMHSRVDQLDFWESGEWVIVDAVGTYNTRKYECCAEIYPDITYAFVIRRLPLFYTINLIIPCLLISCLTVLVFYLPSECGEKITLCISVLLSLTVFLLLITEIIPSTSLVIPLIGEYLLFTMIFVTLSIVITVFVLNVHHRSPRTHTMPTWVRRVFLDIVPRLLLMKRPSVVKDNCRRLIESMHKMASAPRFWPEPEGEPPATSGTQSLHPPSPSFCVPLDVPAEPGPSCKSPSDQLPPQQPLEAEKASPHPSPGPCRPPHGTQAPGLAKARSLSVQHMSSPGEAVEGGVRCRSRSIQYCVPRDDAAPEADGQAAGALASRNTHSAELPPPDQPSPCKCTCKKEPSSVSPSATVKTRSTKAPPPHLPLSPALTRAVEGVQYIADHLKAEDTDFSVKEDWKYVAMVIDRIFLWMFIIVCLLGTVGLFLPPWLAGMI
Chain of Human α4β2 (P17787 26-502): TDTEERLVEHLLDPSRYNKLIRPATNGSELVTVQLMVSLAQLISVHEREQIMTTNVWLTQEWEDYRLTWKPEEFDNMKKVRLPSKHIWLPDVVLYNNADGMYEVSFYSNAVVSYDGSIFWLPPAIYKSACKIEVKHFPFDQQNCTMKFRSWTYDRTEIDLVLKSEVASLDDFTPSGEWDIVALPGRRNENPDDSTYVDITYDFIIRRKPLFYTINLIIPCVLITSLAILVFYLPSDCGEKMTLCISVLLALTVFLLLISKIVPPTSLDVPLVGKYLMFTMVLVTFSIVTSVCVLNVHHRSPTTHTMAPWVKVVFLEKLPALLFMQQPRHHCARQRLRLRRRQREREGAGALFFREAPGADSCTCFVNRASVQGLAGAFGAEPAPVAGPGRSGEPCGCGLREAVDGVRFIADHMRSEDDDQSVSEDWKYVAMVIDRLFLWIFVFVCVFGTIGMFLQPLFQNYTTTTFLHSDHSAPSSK
Chain of α7 nAChR Subtype (Q05941 23-502): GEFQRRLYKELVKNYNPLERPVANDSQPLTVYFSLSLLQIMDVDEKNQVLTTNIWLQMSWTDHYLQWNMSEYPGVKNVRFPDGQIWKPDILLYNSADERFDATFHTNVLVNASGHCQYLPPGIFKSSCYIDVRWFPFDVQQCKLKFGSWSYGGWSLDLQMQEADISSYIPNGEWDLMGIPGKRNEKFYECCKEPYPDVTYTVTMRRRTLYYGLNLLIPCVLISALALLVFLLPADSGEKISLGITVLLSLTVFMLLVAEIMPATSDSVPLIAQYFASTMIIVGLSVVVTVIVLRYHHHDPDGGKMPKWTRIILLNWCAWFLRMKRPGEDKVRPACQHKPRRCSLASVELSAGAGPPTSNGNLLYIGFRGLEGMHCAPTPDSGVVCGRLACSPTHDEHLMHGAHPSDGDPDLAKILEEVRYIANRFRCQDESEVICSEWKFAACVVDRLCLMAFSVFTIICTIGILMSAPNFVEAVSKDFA
Chain of α4β2 nAChR Subtype (P09483 31-630): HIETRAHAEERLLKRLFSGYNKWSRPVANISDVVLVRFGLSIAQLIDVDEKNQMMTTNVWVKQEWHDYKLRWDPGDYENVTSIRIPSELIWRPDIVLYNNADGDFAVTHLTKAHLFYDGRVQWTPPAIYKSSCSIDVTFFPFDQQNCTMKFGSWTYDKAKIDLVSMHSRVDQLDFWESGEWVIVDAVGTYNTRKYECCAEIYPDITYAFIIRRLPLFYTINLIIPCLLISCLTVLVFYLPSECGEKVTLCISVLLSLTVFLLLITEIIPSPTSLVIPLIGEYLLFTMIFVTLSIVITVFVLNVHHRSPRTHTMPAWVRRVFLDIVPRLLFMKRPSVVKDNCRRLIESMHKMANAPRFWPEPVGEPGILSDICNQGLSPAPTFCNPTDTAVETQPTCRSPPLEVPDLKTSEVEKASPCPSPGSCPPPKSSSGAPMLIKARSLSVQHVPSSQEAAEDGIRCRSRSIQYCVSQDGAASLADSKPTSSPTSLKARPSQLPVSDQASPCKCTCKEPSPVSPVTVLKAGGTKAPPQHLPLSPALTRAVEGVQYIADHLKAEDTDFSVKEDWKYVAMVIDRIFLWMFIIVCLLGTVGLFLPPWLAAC
Chain of α4β2 nAChR Subtype (P12390 25-500): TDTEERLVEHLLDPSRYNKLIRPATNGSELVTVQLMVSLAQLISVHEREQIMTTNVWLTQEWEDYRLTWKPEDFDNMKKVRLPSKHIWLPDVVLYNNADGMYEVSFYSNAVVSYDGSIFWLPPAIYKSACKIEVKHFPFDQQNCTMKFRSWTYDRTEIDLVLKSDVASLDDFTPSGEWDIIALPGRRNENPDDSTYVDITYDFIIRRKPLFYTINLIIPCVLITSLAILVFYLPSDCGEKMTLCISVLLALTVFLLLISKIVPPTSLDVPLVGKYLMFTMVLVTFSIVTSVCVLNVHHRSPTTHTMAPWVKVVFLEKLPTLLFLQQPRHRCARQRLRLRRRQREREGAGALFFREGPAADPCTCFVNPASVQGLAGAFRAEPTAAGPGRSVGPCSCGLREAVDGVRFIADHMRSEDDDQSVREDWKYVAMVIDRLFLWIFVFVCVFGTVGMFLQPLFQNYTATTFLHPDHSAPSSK

Row | SMILES | Ki (α4β2 nAChR Subtype; read-out: Rat α4β2 Ki) | Ki (Human α4β2) | inhibition at 5 µM (α7 nAChR Subtype) | Ki (α7 nAChR Subtype) | Ki (α4β2 nAChR Subtype; Rat α4β2 Ki) | Ki (α7 nAChR Subtype; [1])
1 | O=C(CF)C1CC2CNCC2C1 (single isomer, unassigned; isomer 1) [1-(3-azabicyclo[3.3.0]oct-7-yl)-2-fluoro-1-ethanone trifluoroacetate] | 0.154 µM | 0.176 µM |  |  |  | 
2 | CC1COCC(C)N1C(=O)C1C[C@H]2CNC[C@H]2C1 (stereo partly shown) [(3-azabicyclo[3.3.0]oct-7-yl)(2,6-dimethylmorpholin-1-yl)methanone] | 0.0575 µM | 0.0711 µM | < 50% |  |  | 
3 | N#Cc1ccoc1C(=O)[C@H]1C[C@H]2CNC[C@H]2C1 [cis-3-cyanofuran-2-yl(3-azabicyclo[3.3.0]oct-7-yl)methanone] | 0.014 µM | 0.0257 µM | < 50% |  |  | 
4 | CC(C)C(=O)C1CC2CNCC(C2)C1 (stereo not shown) [1-(3-azabicyclo[3.3.1]non-7-yl)-2-methyl-1-propanone] |  | 0.0789 µM |  | > 10 µM |  | 
5 | O=C(NC1CCCC1)C1CC2CNCC(C2)C1 (stereo not shown) [N-cyclopentyl-3-azabicyclo[3.3.1]nonane-7-carboxamide] | 0.102 µM | 0.0268 µM | < 50% |  |  | 
6 | O=C(Nc1cccnc1)C1CC2CNCC(C2)C1 (stereo not shown) [N-(pyridin-3-yl)-3-azabicyclo[3.3.1]nonane-7-carboxamide] |  | 0.0468 µM | < 50% |  |  | 
7 | CCNC(=O)C1CC2CNCC(C2)C1 (stereo not shown) [N-ethyl-3-azabicyclo[3.3.1]nonane-7-carboxamide] | 0.0135 µM | 0.0064 µM | < 50% |  |  | 
8 | CC(C)OCC(=O)C1C[C@H]2CNC[C@H]2C1.O=C(O)C(F)(F)F (mixture of isomers) [1-(3-Azabicyclo[3.3.0]oct-7-yl)-2-isopropoxy-1-ethanone trifluoroacetate] | 0.427 µM | 0.261 µM |  |  |  | 
9 | O=C(OCC1CC1)C1C[C@H]2CNC[C@H]2C1 (mixture of isomers) [cyclopropylmethyl 3-azabicyclo[3.3.0]octane-7-carboxylate] |  | 0.0403 µM |  | > 10 µM | 0.0621 µM | 
10 | COC(=O)C1=CC2CNCC2C1.Cl (stereo not shown) [methyl 3-azabicyclo[3.3.0]-oct-6-ene-7-carboxylate hydrochloride] | 0.005 µM | 0.002 µM |  |  |  | 
11 | O=C(c1occc1Br)C1C[C@H]2CNC[C@H]2C1 (mixture of isomers) [3-bromofuran-2-yl(3-azabicyclo[3.3.0]oct-7-yl)methanone] | 0.0028 µM | 0.0009 µM | < 50% |  |  | 
12 | O=C(NCC(F)(F)F)C1C[C@H]2CNC[C@H]2C1.O=C(O)C(F)(F)F (mixture of isomers) [N-(2,2,2-trifluoroethyl)-3-azabicyclo[3.3.0]octane-7-carboxamide trifluoroacetate] |  | 0.261 µM |  |  |  | 
13 | O=C(Nc1ccc(F)cc1)C1CC2CNCC(C2)C1 (stereo not shown) [N-(4-fluorophenyl)-3-azabicyclo[3.3.1]nonane-7-carboxamide] | 0.0922 µM | 0.0321 µM | < 50% |  |  | 
14 | O=C(NC1CC1)C1CC2CNCC(C2)C1 (stereo not shown) [N-cyclopropyl-3-azabicyclo[3.3.1]nonane-7-carboxamide] | 0.707 µM | 0.0156 µM | < 50% |  |  | 
15 | CCOC(=O)C1C[C@H]2CNC[C@H]2C1 (mixture of isomers) [ethyl 3-azabicyclo[3.3.0]octane-7-carboxylate] | 0.0458 µM | 0.0175 µM | < 50% |  |  | 
16 | O=C(C1CC2CNCC(C2)C1)N1CCOCC1 (stereo not shown) [4-morpholinyl(3-azabicyclo[3.3.1]non-7-yl)methanone] | 0.0625 µM | 0.0225 µM | < 50% |  |  | 
17 | O=C(NCc1ccco1)C1C[C@H]2CNC[C@H]2C1 (mixture of isomers) [N-(2-furanylmethyl)-3-azabicyclo[3.3.0]octane-7-carboxamide] |  | 0.302 µM |  | 74.9 µM | 0.272 µM | 
18 | NC(=O)C1C[C@H]2CNC[C@H]2C1 (mixture of isomers) [3-azabicyclo[3.3.0]octane-7-carboxamide] | 0.394 µM | 0.32 µM |  | 8.28 µM |  | 
19 | O=C(OC1CCOC1)C1C[C@H]2CNC[C@H]2C1 (stereo partly shown) [tetrahydrofuran-3-yl 3-azabicyolo[3.3.0]octane-7-carboxylate] | 0.129 µM | 0.12 µM |  | > 10 µM |  | 
20 | O=C(C1C[C@H]2CNC[C@H]2C1)N1CC=CCC1 (mixture of isomers) [(3-azabicyclo[3.3.0]oct-7-yl)(2,3,6-trihydropyridin-1-yl)methanone] | 0.0463 µM | 0.0284 µM | < 50% |  |  | 
21 | CCC(C)NC(=O)C1CC2CNCC(C2)C1 (stereo not shown) [N-sec-butyl-3-azabicyclo[3.3.1]nonane-7-carboxamide] | 0.272 µM | 0.0428 µM |  |  |  | > 10 µM
22 | NCCNC(=O)C1CC2CNCC(C2)C1 (stereo not shown) [N-(2-aminoethyl)-3-azabicyclo[3.3.1]nonane-7-carboxamide] |  | 0.0524 µM | < 50% |  |  | 

Row | SMILES | Ki (α4β2 nAChR Subtype; read-out: Rat α4β2 Ki) | Ki (Human α4β2) | inhibition at 5 µM (α7 nAChR Subtype) | Ki (α7 nAChR Subtype) | Ki (α4β2 nAChR Subtype; Rat α4β2 Ki) | Ki (α7 nAChR Subtype; [1])
23 | CN(C)C(=O)[C@H]1C[C@H]2CNC[C@H]2C1 [cis-N,N-dimethyl-3-azabicyclo[3.3.0]octane-7-carboxamide] |  | 1.34 µM | < 50% |  |  | 
24 | O=C(NCC1CC1)C1CC2CNCC(C2)C1 (stereo not shown) [N-(cyclopropylmethyl)-3-azabicyclo[3.3.1]nonane-7-carboxamide] | 0.0691 µM | 0.0922 µM | < 50% |  |  | 
25 | O=C(C1CCCC1)C1C[C@H]2CNC[C@H]2C1 (mixture of isomers) [cyclopentyl(3-azabicyclo[3.3.0]oct-7-yl)methanone] | 0.0159 µM | 0.0075 µM | < 50% |  |  | 
26 | CN(C)C(=O)C1CC2CNCC(C2)C1 (stereo not shown) [N,N-dimethyl-3-azabicyclo[3.3.1]nonane-7-carboxamide] |  | 0.054 µM |  | > 10 µM | 0.078 µM | 
27 | CCCCC(=O)[C@@H]1C[C@H]2CNC[C@H]2C1 [trans-1-(3-azabicyclo[3.3.0]oct-7-yl)-1-pentanone] | 0.108 µM | 0.186 µM | < 50% |  |  | 
28 | O=C(OC1CCOCC1)C1C[C@H]2CNC[C@H]2C1 (mixture of isomers) [tetrahydropyran-4-yl 3-azabicyclo[3.3.0]octane-7-carboxylate] | 0.0685 µM | 0.146 µM | < 50% |  |  | 
29 | CC(C)C(=O)C1C[C@H]2CNC[C@H]2C1 (mixture of isomers) [1-(3-azabicyclo[3.3.0]oct-7-yl)-2-methyl-1-propanone] |  | 0.0002 µM |  | 2.38 µM | 0.0003 µM | 
30 | O=C(c1ccco1)[C@@H]1C[C@H]2CNC[C@H]2C1 [trans-2-furanyl(3-azabicyclo[3.3.0]oct-7-yl)methanone] |  | 0.226 µM | < 50% |  | 0.463 µM | 
31 | O=C(C1C[C@H]2CNC[C@H]2C1)N1CCC[C@@H]1CO (mixture of isomers) [(R)-(2-(hydroxymethyl)-1-pyrrolidinyl)(3-azabicyclo[3.3.0]oct-7-yl)methanone] | 0.387 µM | 0.255 µM | < 50% |  |  | 
32 | O=C(OC1CC=CC1)C1C[C@H]2CNC[C@H]2C1 (mixture of isomers) [cyclopent-3-en-1-yl 3-azabicyclo[3.3.0]octane-7-carboxylate] | 0.0593 µM | 0.0225 µM |  |  |  | > 10 µM
33 | O=C(c1ccco1)[C@H]1C[C@H]2CNC[C@H]2C1 [cis-2-furanyl(3-azabicyclo[3.3.0]oct-7-yl)methanone] |  | 0.0132 µM | < 50% |  | 0.011 µM | 
34 | O=C(NCCF)C1CC2CNCC(C2)C1 (stereo not shown) [N-(2-fluoroethyl)-3-azabicyclo[3.3.1]nonane-7-carboxamide] |  | 0.0135 µM |  | > 10 µM | 0.122 µM | 
35 | O=C(NCCCF)C1CC2CNCC(C2)C1 (stereo not shown) [N-(3-fluoropropyl)-3-azabicyclo[3.3.1]nonane-7-carboxamide] | 0.0447 µM | 0.0232 µM | < 50% |  |  | 
36 | C#CCN(C)C(=O)C1C[C@H]2CNC[C@H]2C1 (stereo partly shown) [N-methyl-N-prapargyl-3-azabicyclo[3.3.0]octane-7-carboxamide] | 0.139 µM | 0.0525 µM |  | ≥ 10 µM |  | 
37 | O=C(Nc1ccccc1)C1CC2CNCC(C2)C1 (stereo not shown) [N-phenyl-3-azabicyclo[3.3.1]nonane-7-carboxamide] |  | 0.0127 µM | < 50% |  |  | 
38 | O=C(CF)C1CC2CNCC2C1 (single isomer, unassigned; isomer 1) [1-(3-azabicyclo[3.3.0]oct-7-yl)-2-fluoro-1-ethanone trifluoroacetate cis isomer, 1-(3-azabicyclo[3.3.0]oct-7-yl)-2-fluoro-1-ethanone trifluoroacetate] | 0.0068 µM | 0.0063 µM |  |  |  | 
39 | O=C(c1ccco1)C1CC2CNCC(C2)C1 (stereo not shown) [2-furanyl(3-azabicyclo[3.3.1]non-7-yl)methanone] |  | 0.113 µM |  | > 10 µM |  | 
40 | CC1COCC(C)N1C(=O)C1=C[C@@H]2CNC[C@@H]2C1 (stereo partly shown) [(3-azabicyclo[3.3.0]oct-6-en-7-yl)(2,6-dimethylmorpholin-1-yl)methanone] |  | 1.71 µM | < 50% |  |  | 
41 | O=C(C1=CC2CNCC2C1)c1ccco1.O=C(O)C(F)(F)F (stereo not shown) [2-furanyl(3-azabicyclo[3.3.0]oct-6-en-7-yl)methanone trifluoroacetate] |  | 0.002 µM |  |  | 0.008 µM | 
42 | O=C(OC1CCC1)C1C[C@H]2CNC[C@H]2C1 (mixture of isomers) [cyclobutyl 3-azabicyclo[3.3.0]octane-7-carboxylate] |  | 0.0806 µM |  | > 10 µM |  | 
43 | COCC(=O)C1C[C@H]2CNC[C@H]2C1.O=C(O)C(F)(F)F (mixture of isomers) [1-(3-azabicyclo[3.3.0]oct-7-yl)-2-methoxy-1-ethanone trifluoroacetate] | 0.032 µM | 0.031 µM |  |  |  | 
44 | C=CCC(C)OC(=O)C1C[C@H]2CNC[C@H]2C1 (mixture of isomers) [pent-4-en-2-yl 3-azabicyclo[3.3.0]octane-7-carboxylate] |  | 0.0448 µM |  |  |  | > 10 µM
